Legend:
GABAA receptor α2β3γ2 = target: T1, GABAA receptor α2β3γ2 (Homo sapiens, UniProt P18507+P47869); experiment: Two-electrode voltage-clamp potentiation of GABA EC10 current in Xenopus oocytes, GABAA2; type: cell-based; conditions: percentage potentiation of GABA EC10 current divided by that of diazepam
T1 construct: expressed in transfected cells; host or cells: Xenopus laevis oocytes injected with cRNA
Experimental: GABAA receptors were heterologously expressed in Xenopus oocytes by injecting cRNA corresponding to human α1, α2, α3, α5, β2, P3 and γ2 subunits of the GABAA receptor genes. The specific subunit combinations (subtypes) were as follows: α1β2γ2, α2β3γ2, α3β3γ2, and α5β3γ2. The EC10 of GABA is approximated for each cell. Stability of GABA-mediated (EC10) current is established. Modulatory effect of test compound is determined and compared across subtypes. […] Thus, the assay can characterize modulatory effects and determine subtype selectivity of test compounds on major subtypes of GABAA receptors.
Xenopus laevis frogs (Xenopus I, Kalamazoo, Mich.) were anesthetized using 0.15% tricaine. Surgically removed ovarian lobes were teased out in OR2 solution (82 NaCl, 2.5 KCl, 5 HEPES, 1.5 NaH2PO4, 1 MgCl2, 0.1 EDTA, in mM, pH 7.4). The oocytes were defolliculated by incubation in 25 mL OR2 containing 0.2% collagenase 1A (SIGMA) two times for about 60 minutes on a platform shaker and stored in Leibovitz's L-15 medium. Oocytes were injected the following day in 0.5× Leibovitz's L-15 medium containing […] gentamycin, 10 units/ml penicillin, and […] streptomycin.
Capped cRNAs from the linearized vectors containing human α1, β2 and γ2 subunits of the GABAA receptor genes were mixed in ratio of […]. Oocytes were injected with 25-50 nL of mixed RNA with an appx molar ratio for α1, β2, and γ2 as 1:1:10. Oocyte recordings were done 2-10 days after injection. The same methods apply to subtypes derived from α2β3γ2, α3β3γ2, and α5β3γ2, except for 1:1:1 ratio was used for α, β, and γ subunits.
All measurements were done in a medium containing ND-96 (96 NaCl, 2 KCl, 1.8 CaCl2.2H2O, 1 MgCl2.6H2O, 5 HEPES, in mM, pH 7.5). Two-electrode voltage-clamp recording was carried out using OpusXpress amplifier (Axon Instruments, Foster City, Calif.), which allows simultaneous recording from 8 oocytes. Oocytes were impaled with two electrodes of 1-2 MΩ tip resistance when filled with 3M KCl. Recordings were begun when membrane potential became stable at potentials negative to −50-−60 mV. Membrane potential was held at −60 mV. […] The concentration of GABA corresponded to the EC10 value calculated for each oocyte. The modulator pulses started 30 s before the GABA pulse so as to allow preincubation with the modulator. A set of 3 pulses with just GABA without modulator was given prior to the modulator-containing pulses to define the baseline GABA response. Two oocytes per each experiment were dedicated to observe the effect of diazepam on GABA response to ensure the presence of γ2 subunit in the GABAA pentameric complex, which imparts diazepam sensitivity to the complex.
Current amplitude (i) was measured from baseline to peak using Clampfit (Axon Inst., Foster City, Calif.). Potentiation was calculated as percent change from the baseline GABA current flux 100×(imod/icontrol)−1) where imod=current mediated by modulator+GABA and icontrol=current mediated by GABA alone. […] Similarly, a value of −50% potentiation means the presence of modulator caused a 50% decrease in the control current. Various other data shown here were fitted and plotted using GraphPad Prism (GraphPad Software, Inc. San Diego, Calif.). The percentage potentiation was converted to relative potentiation by dividing it with percentage potentiation value obtained from the same assay with diazepam as a control.

GABAA receptor α1β2γ2 = target: T2, GABAA receptor α1β2γ2 (Homo sapiens, UniProt P14867+P18507); experiment: Two-electrode voltage-clamp potentiation of GABA EC10 current in Xenopus oocytes, GABAA1; type: cell-based; conditions: percentage potentiation of GABA EC10 current divided by that of diazepam
T2 construct: expressed in transfected cells; host or cells: Xenopus laevis oocytes injected with cRNA
Procedure, shortened: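 Human GABAA receptors expressed in Xenopus oocytes by cRNA injection (α:β:γ molar ratio ~1:1:10 for α1β2γ2, 1:1:1 for α2β3γ2), recorded 2-10 days later by two-electrode voltage clamp at −60 mV in ND-96, pH 7.5. Modulator preapplied 30 s before GABA at per-oocyte EC10. Peak-current percent potentiation over GABA alone, normalised to diazepam.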

[1] = target: T3, GABAA2 receptors (α2, β3, γ2 receptor subunits transfected into Sf9 cells) (Homo sapiens, UniProt P18507+P47869); experiment: GABAA2 Binding Method ([3H]-Flunitrazepam displacement); conditions: [3H]-Flunitrazepam ~2 nM, α2β3γ2 Sf9 membranes, 1 hr at 4° C.
T3 construct: host or cells: Sf9 cells (membranes)
Procedure, shortened: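 Membranes from Sf9 cells expressing α2β3γ2 GABAA receptors incubated with ~2 nM (final) [3H]-flunitrazepam and test compound 1 h at 4 °C, then filtered on GF/B plates with cold-buffer washes. Flumazenil-defined controls; percent of control, IC50 and Ki calculated.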

T3 sequence (P47869 29-451): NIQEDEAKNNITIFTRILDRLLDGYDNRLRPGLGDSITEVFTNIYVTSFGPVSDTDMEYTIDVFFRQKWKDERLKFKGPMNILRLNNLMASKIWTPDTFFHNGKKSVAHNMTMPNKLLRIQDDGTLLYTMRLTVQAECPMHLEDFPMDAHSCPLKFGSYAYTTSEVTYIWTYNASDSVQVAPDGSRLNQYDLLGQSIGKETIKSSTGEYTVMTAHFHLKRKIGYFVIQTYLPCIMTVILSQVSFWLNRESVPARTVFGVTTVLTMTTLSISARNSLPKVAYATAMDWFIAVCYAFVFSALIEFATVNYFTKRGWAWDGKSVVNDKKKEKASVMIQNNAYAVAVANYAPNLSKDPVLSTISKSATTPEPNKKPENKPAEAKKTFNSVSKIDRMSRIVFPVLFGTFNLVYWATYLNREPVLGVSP
T3 sequence (P28472 26-473 partner): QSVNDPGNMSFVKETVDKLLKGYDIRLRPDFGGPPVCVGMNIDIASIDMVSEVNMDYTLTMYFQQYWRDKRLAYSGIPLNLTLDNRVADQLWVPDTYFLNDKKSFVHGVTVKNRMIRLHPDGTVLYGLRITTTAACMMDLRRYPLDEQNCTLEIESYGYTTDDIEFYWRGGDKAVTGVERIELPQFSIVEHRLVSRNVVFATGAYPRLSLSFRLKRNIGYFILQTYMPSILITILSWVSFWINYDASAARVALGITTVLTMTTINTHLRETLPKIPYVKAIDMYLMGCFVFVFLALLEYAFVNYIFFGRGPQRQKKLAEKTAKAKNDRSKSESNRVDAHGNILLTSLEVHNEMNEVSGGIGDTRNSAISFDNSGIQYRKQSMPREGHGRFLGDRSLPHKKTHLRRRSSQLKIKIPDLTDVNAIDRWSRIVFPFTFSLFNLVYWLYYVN
T3 sequence (P18507 40-475): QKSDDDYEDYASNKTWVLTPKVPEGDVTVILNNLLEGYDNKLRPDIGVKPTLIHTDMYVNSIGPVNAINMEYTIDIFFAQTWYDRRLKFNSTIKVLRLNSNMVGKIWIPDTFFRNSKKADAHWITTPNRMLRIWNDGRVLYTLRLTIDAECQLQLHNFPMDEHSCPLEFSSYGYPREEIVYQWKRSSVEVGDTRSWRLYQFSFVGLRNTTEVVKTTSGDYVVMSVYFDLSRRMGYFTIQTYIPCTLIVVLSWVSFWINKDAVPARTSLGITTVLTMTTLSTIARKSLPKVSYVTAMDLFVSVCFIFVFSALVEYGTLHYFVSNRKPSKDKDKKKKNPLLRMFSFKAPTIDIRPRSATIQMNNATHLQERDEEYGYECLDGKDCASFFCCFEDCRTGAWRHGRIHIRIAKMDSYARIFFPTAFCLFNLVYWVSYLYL
T1 sequence (P47869 29-451): as the sequence (P47869 29-451) above
T1 sequence (P28472 26-473 partner): as the sequence (P28472 26-473 partner) above
T1 sequence (P18507 40-475): as the sequence (P18507 40-475) above
T2 sequence (P14867 28-456): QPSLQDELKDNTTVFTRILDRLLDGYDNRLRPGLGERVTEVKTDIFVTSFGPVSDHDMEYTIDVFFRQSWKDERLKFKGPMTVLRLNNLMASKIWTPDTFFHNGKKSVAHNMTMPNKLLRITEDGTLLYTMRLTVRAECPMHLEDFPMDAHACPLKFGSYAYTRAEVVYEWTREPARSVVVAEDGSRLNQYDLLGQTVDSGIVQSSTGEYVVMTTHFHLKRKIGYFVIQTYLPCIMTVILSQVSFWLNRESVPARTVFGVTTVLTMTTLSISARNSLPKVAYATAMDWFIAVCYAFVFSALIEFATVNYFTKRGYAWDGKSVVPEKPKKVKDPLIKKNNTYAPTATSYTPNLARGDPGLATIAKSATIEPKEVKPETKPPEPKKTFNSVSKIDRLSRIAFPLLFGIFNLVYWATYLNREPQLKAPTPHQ
T2 sequence (P47870 25-512 partner limits assumed): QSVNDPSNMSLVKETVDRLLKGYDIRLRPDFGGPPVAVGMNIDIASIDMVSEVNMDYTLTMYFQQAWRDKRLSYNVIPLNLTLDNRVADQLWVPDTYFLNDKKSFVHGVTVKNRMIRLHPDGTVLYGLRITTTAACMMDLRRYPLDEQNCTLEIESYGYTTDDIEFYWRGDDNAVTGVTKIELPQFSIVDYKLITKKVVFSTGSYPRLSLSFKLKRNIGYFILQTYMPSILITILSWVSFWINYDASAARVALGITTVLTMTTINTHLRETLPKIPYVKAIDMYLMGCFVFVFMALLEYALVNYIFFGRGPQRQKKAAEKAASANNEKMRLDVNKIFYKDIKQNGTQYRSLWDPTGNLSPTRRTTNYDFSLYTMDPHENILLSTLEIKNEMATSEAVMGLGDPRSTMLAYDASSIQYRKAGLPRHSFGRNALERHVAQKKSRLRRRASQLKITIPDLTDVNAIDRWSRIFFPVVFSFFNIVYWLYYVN
T2 sequence (P18507 40-475): as the sequence (P18507 40-475) above

| SMILES | Relative Potentiation for GABAA2 (GABAA receptor α2β3γ2) | Relative Potentiation for GABAA1 (GABAA receptor α1β2γ2) | Ki [1] |
| --- | --- | --- | --- |
| CCCN1Cc2nc3c(-c4ccccc4C#N)cccc3c(N)c2C1=O [2-(9-amino-1-oxo-2-propyl-2,3-dihydro-1H-pyrrolo[3,4-b]quinolin-5-yl)benzonitrile] | 0.21 | 0.15 | 30.7 nM |
| N#Cc1cncc(-c2cccc3c(N)c4c(nc23)CN(C2CCC2)C4=O)c1 [5-(9-Amino-2-cyclobutyl-1-oxo-2,3-dihydro-1H-pyrrolo[3,4-b]quinolin-5-yl)-nicotinonitrile] | 0.21 | 0.048 | 5.85 nM |
| N#Cc1ccc(-c2cccc3c(N)c4c(nc23)CN(C2CCC2)C4=O)cn1 [5-(9-Amino-2-cyclobutyl-1-oxo-2,3-dihydro-1H-pyrrolo[3,4-b]quinolin-5-yl)-pyridine-2-carbonitrile] | 0.17 | −0.038 | 15.6 nM |
| N#Cc1ccc(-c2cccc3c(N)c4c(nc23)CN(C2CCC2)C4=O)nc1 [6-(9-Amino-2-cyclobutyl-1-oxo-2,3-dihydro-1H-pyrrolo[3,4-b]quinolin-5-yl)-nicotinonitrile] | 0.15 | 0.005 | 2.39 nM |
| COc1ccc(CN2Cc3nc4c(-c5c(F)cccc5OC)cccc4c(N)c3C2=O)cc1Cl [9-Amino-2-(3-chloro-4-methoxybenzyl)-5-(2-fluoro-6-methoxyphenyl)-2,3-dihydropyrrolo[3,4-b]quinolin-1-one] | 0.15 | 0.088 | 10.3 nM |
| Cc1cccc(-c2cccc3c(N)c4c(nc23)C(O)N(C2CCC2)C4=O)n1 (stereo not drawn) [9-Amino-2-cyclobutyl-3-hydroxy-5-(6-methylpyridin-2-yl)-2,3-dihydropyrrolo[3,4-b]quinolin-1-one] | 0.1 | −0.052 | 7.62 nM |
| Cc1nn(C)cc1-c1cccc2c(N)c3c(nc12)CN(C1CCC1)C3=O [9-Amino-2-cyclobutyl-5-(1,3-dimethyl-1H-pyrazol-4-yl)-2,3-dihydropyrrolo[3,4-b]quinolin-1-one] | 0.43 | 0.017 | 3.91 nM |
| Cn1cc(-c2cccc3c(N)c4c(nc23)CN(C2CCC2)C4=O)cn1 [9-Amino-2-cyclobutyl-5-(1-methyl-1H-pyrazol-4-yl)-2,3-dihydropyrrolo[3,4-b]quinolin-1-one] | 0.18 | 0.01 | 3.76 nM |
| COc1ncc(-c2c(F)ccc3c(N)c4c(nc23)CN(C2CCC2)C4=O)c(OC)n1 [9-Amino-2-cyclobutyl-5-(2,4-dimethoxypyrimidin-5-yl)-6-fluoro-2,3-dihydropyrrolo[3,4-b]quinolin-1-one] | 0.4 | 0.11 | 0.953 nM |
| COc1cnc(OC)c(-c2cccc3c(N)c4c(nc23)CN(C2CCC2)C4=O)c1 [9-Amino-2-cyclobutyl-5-(2,5-dimethoxypyridin-3-yl)-2,3-dihydropyrrolo[3,4-b]quinolin-1-one] | 0.47 | 0.087 | 3.35 nM |
| COc1cc(F)c(-c2cccc3c(N)c4c(nc23)CN(C2CCC2)C4=O)c(F)c1 [9-Amino-2-cyclobutyl-5-(2,6-difluoro-4-methoxyphenyl)-2,3-dihydropyrrolo[3,4-b]quinolin-1-one] | 0.13 | −0.023 | 1.43 nM |
| Nc1c2c(nc3c(-c4ccc(F)nc4F)cccc13)CN(C1CCC1)C2=O [9-Amino-2-cyclobutyl-5-(2,6-difluoropyridin-3-yl)-2,3-dihydropyrrolo[3,4-b]quinolin-1-one] | 0.21 | 0.033 | 0.732 nM |
| COc1cccc(-c2cccc3c(N)c4c(nc23)CN(C2CCC2)C4=O)c1F [9-Amino-2-cyclobutyl-5-(2-fluoro-3-methoxyphenyl)-2,3-dihydropyrrolo[3,4-b]quinolin-1-one] | 0.26 | 0.062 | 4.19 nM |
| COc1ccc(F)c(-c2cccc3c(N)c4c(nc23)CN(C2CCC2)C4=O)c1 [9-Amino-2-cyclobutyl-5-(2-fluoro-5-methoxyphenyl)-2,3-dihydropyrrolo[3,4-b]quinolin-1-one] | 0.29 | 0.1 | 1.34 nM |
| Cc1ccc(-c2cccc3c(N)c4c(nc23)CN(C2CCC2)C4=O)c(F)n1 [9-Amino-2-cyclobutyl-5-(2-fluoro-6-methylpyridin-3-yl)-2,3-dihydropyrrolo[3,4-b]quinolin-1-one] | 0.3 | −0.017 | 4.26 nM |
| Nc1c2c(nc3c(-c4cccnc4F)cccc13)CN(C1CCC1)C2=O [9-Amino-2-cyclobutyl-5-(2-fluoropyridin-3-yl)-2,3-dihydropyrrolo[3,4-b]quinolin-1-one] | 0.24 | −0.002 | 2.56 nM |
| COc1ccc(-c2c(F)ccc3c(N)c4c(nc23)CN(C2CCC2)C4=O)cc1OC [9-Amino-2-cyclobutyl-5-(3,4-dimethoxyphenyl)-6-fluoro-2,3-dihydropyrrolo[3,4-b]quinolin-1-one] | 0.41 | 0.083 | 1 nM |
| Nc1c2c(nc3c(-c4nccnc4F)cccc13)CN(C1CCC1)C2=O [9-Amino-2-cyclobutyl-5-(3-fluoropyrazin-2-yl)-2,3-dihydropyrrolo[3,4-b]quinolin-1-one] | 0.14 | −0.03 | 2.17 nM |
| Nc1c2c(nc3c(-c4ncccc4F)cccc13)CN(C1CCC1)C2=O [9-Amino-2-cyclobutyl-5-(3-fluoropyridin-2-yl)-2,3-dihydropyrrolo[3,4-b]quinolin-1-one] | 0.19 | 0.017 | 4.69 nM |

Source: US20080318943A1, “Compounds and Uses Thereof - 848” (ASTRAZENECA AB, priority 2007, published 2008)
